Assays:
[1] = system: control sera (pooled serum of ten healthy LUMC hospital workers; commercial negative donor pooled serum from the Dutch bloodbank); type: binding, human; parameters: Binding of Control serum LUMC to linear peptides / Binding of Control serum Blood-bank to linear peptides / Binding of Control serum LUMC to looped peptides / Binding of Control Serum Blood-Bank to Looped peptides / Binding of Control serum LUMC to linear peptides of the protein M of SARS-CoV Urbani / Binding of Control serum Blood-bank to linear peptides of the protein M of SARS-CoV Urbani / Binding of Control serum LUMC to looped peptides of the protein M of SARS-CoV Urbani / Binding of Control Serum Blood-Bank to Looped peptides of the protein M of SARS-CoV Urbani: unit not given here
[2] = system: rabbit serum obtained by immunizing a rabbit with the SARS-CoV strain Frankfurt 1; type: binding; parameters: Binding of a rabbit serum to linear peptides / Binding of a rabbit serum to looped peptides / Rabbit serum linear peptides / Rabbit serum looped peptides / Binding of a rabbit serum to linear peptides of protein N of SARS-CoV Urbani (Rabbit serum linear peptides) / Binding of a rabbit serum to looped/cyclic peptides of protein N of SARS-CoV Urbani (Rabbit serum looped peptides): unit not given here
[3] = system: antibodies in sera from SARS patients (sera 1a, 1b, 2, 6, 37, 62, London, SARS-yellow, SARS-green); type: binding, human; parameters: Binding of serum 6 to linear peptides of protein X1 of SARS-CoV Urbani / Binding of serum 37 to linear peptides of protein X1 of SARS-CoV Urbani / Binding of serum 6 to looped/cyclic peptide (PEPSCAN-ELISA) / Binding of serum 37 to looped/cyclic peptide (PEPSCAN-ELISA) / Binding of serum 37 to looped/cyclic peptides of protein X1 of SARS-CoV Urbani / Binding of serum 6 to linear peptides of protein X2 / Binding of serum 37 to linear peptides of protein X2 / Binding of serum 37 to looped/cyclic peptides of protein X2 of SARS-CoV Urbani / Binding of serum 6 to linear peptides of protein M of SARS-CoV Urbani / Binding of serum 37 to linear peptides of protein M of SARS-CoV Urbani / Binding of serum 6 to looped/cyclic peptides of protein M of SARS-CoV Urbani / Binding of serum 37 to looped/cyclic peptides of protein M of SARS-CoV Urbani / Binding of serum 6 to linear peptides of protein X3 of SARS-CoV Urbani / Binding of serum 37 to linear peptides of protein X3 of SARS-CoV Urbani / Binding of serum 37 to looped/cyclic peptides of protein X3 of SARS-CoV Urbani / Binding of serum 6 to linear peptides of protein X4 of SARS-CoV Urbani / Binding of serum 37 to linear peptides of protein X4 of SARS-CoV Urbani / Binding of serum 37 to looped/cyclic peptides of protein X4 of SARS-CoV Urbani / Binding of serum 6 to linear peptides of protein X5 of SARS-CoV Urbani / Binding of serum 37 to linear peptides of protein X5 of SARS-CoV Urbani / Binding of serum 37 to looped/cyclic peptides of protein X5 of SARS-CoV Urbani / Binding of serum 6 to linear peptides of protein N of SARS-CoV Urbani / Binding of serum 37 to linear peptides of protein N of SARS-CoV Urbani / Binding of serum 6 to linear peptide (PEPSCAN-ELISA) / Binding of serum 1a to looped/cyclic peptides of protein N of SARS-CoV Urbani / Binding of serum 1b to looped/cyclic peptides of protein N of SARS-CoV Urbani / Binding of serum 2 to looped/cyclic peptides of protein N of SARS-CoV Urbani / Binding of serum 6 to looped/cyclic peptides of protein N of SARS-CoV Urbani / Binding of serum 37 to looped/cyclic peptides of protein N of SARS-CoV Urbani / Binding of serum 62 to looped/cyclic peptides of protein N of SARS-CoV Urbani / Binding of serum London to looped/cyclic peptides of protein N of SARS-CoV Urbani / Binding of serum SARS-green to looped/cyclic peptides of protein N of SARS-CoV Urbani: unit not given here

Sequence | Binding of Control Serum Blood-Bank to Looped peptides [1] | Binding of Control serum Blood-bank to linear peptides [1] | Binding of Control serum LUMC to linear peptides [1] | Binding of Control serum LUMC to looped peptides [1] | Binding of a rabbit serum to linear peptides [2] | Binding of a rabbit serum to looped peptides [2] | Rabbit serum linear peptides [2] | Rabbit serum looped peptides [2] | other results
VKDPPNVQIHTIDGS | 0.5 | 0.4 | 0.4 | 0.6 | 0.1 | 0.5 |  |  | 
NYDYCIPYNSVTDTI | 0.6 | 0.6 | 0.6 | 0.7 | 0.1 | 0.5 |  |  | 
NPAMDPIYDEPTTTT | 0.4 | 0.4 | 0.3 | 0.4 | 0.1 | 0.3 |  |  | 
PLGRCDIKDLPKEIT |  |  |  |  |  |  | 0.3 | 0.4 | Binding of Control Serum Blood-Bank to Looped peptides of the protein M of SARS-CoV Urbani [1]: 0.9; Binding of Control serum Blood-bank to linear peptides of the protein M of SARS-CoV Urbani [1]: 0.6; Binding of Control serum LUMC to linear peptides of the protein M of SARS-CoV Urbani [1]: 0.4; Binding of Control serum LUMC to looped peptides of the protein M of SARS-CoV Urbani [1]: 0.8
NVTINCQDPAGGALI | 0.7 | 0.8 | 0.6 | 0.7 |  |  | 0.6 | 0.5 | 
GHQTAAFRDVLVVLN | 0.6 | 0.5 | 0.8 | 0.6 |  |  | 0.1 | 0.5 | 
SEDRHSGVKDYVVVH | 0.5 | 1.0 | 0.8 | 0.5 | 0.1 | 0.4 |  |  | 
RMAGHPLGRCDIKDL |  |  |  |  |  |  | 0.1 | 0.6 | Binding of Control Serum Blood-Bank to Looped peptides of the protein M of SARS-CoV Urbani [1]: 0.9; Binding of Control serum Blood-bank to linear peptides of the protein M of SARS-CoV Urbani [1]: 0.7; Binding of Control serum LUMC to linear peptides of the protein M of SARS-CoV Urbani [1]: 0.7; Binding of Control serum LUMC to looped peptides of the protein M of SARS-CoV Urbani [1]: 0.8
SGVKDYVVVHGYFTE | 0.2 | 0.5 | 0.6 | 0.5 | 0.1 | 0.7 |  |  | 
NYFVCWHTHNYDYCI | 0.6 | 0.6 | 0.6 | 0.6 | 0.1 | 0.5 |  |  | 
TTVYHITVSQIQLSL |  |  |  |  | 0.7 | 0.4 |  |  | Binding of serum 1a to linear peptides of protein X2 [3]: 0.7; Binding of serum 1a to looped/cyclic peptides of protein X2 of SARS-CoV Urbani [3]: 0.5; Binding of serum 1b to linear peptides of protein X2 [3]: 0.5; Binding of serum 1b to looped/cyclic peptides of protein X2 of SARS-CoV Urbani [3]: 0.5; Binding of serum 2 to linear peptides of protein X2 [3]: 0.5; Binding of serum 2 to looped/cyclic peptides of protein X2 of SARS-CoV Urbani [3]: 0.3; Binding of serum 6 to linear peptides of protein X2 [3]: 0.5; Binding of serum 6 to looped/cyclic peptides of protein X2 of SARS-CoV Urbani [3]: 0.3; Binding of serum 37 to linear peptides of protein X2 [3]: 0.7; Binding of serum 37 to looped/cyclic peptides of protein X2 of SARS-CoV Urbani [3]: 0.4; Binding of serum 62 to linear peptides of protein X2 [3]: 0.6; Binding of serum 62 to looped/cyclic peptides of protein X2 of SARS-CoV Urbani [3]: 0.5; Binding of serum London to linear peptides of protein X2 [3]: 0.4; Binding of serum London to looped/cyclic peptides of protein X2 of SARS-CoV Urbani [3]: 0.2; Binding of serum SARS-green to linear peptides of protein X2 [3]: 0.1; Binding of serum SARS-green to looped/cyclic peptides of protein X2 of SARS-CoV Urbani [3]: 0.2; Binding of serum SARS-yellow to linear peptides of protein X2 [3]: 0.8; Binding of serum SARS-yellow to looped/cyclic peptides of protein X2 of SARS-CoV Urbani [3]: 0.4

From patent publication US20070128217A1 (priority 2003, published 2007)
